Laboratory results: article PMC10382589, “In vitro and in vivo antiplasmodial evaluation of sugar-modified nucleoside analogues” (Scientific Reports, 2023)
“Also recorded” adds a separate entry of the source. Where two headings read alike, the source gives them in different places.

Assays:
[1] = test system: Pf3D7 chloroquine-sensitive strain; experiment: SYBR green I based fluorescence growth inhibition assay, Pf3D7; assay type: cell-based, Plasmodium falciparum; settings: for IC50: Plasmodium falciparum, chloroquine-sensitive strain, synchronized late trophozoite parasites, SYBR Green, triplicate, mean ± SD, read-out: IC50 (µM) against Pf3D7; for growth inhibition against Pf3D7 (in words): screen at 1 µM and 10 µM, vs untreated control (Fig. S1)
Method: Growth of one intraerythrocytic cycle of Pf was monitored after treated with compounds whereas untreated parasites were considered as control.
(§1) The percent growth inhibition of the parasites was evaluated by SYBR Green assay.
(§2) Pf3D7 and PfRKL-9 were cultured by following procedure reported by Trager and Jensen[33]. […] In order to examine the morphological changes in the parasite, a blood film must be prepared. A thin blood film was air-dried, fixed with methanol, and allowed to dry before staining. […] Light microscopy analysis was carried out to evaluate the inhibitory effect of compounds at different concentrations against Pf3D7 and PfRKL-9.
SYBR green I based fluorescence assay was performed to measure the growth inhibition effect of the 26 compounds and further dose dependent assay against Pf3D7, and PfRKL-9 (Indian field strain, source- NIMR, New Delhi, India) was carried out at different concentrations. […] Parasitized erythrocytes were treated with different concentrations of compounds ranging from 1 µM to 10 µM, whereas DMSO worked as a control. Triplicate wells of parasitized erythrocytes treated with compounds were seeded in 96 well microtiter plate following incubation at 37 °C for one cycle of parasite growth. […] Growth inhibition (%) was calculated as follows: % Inhibition = [1 − % Parasitemia (Treatment)/% Parasitemia (Control)] *100. Data were expressed as mean ± SD.

[2] = test system: chloroquine resistant strain PfRKL-9; experiment: SYBR green I based fluorescence growth inhibition assay, PfRKL-9; assay type: cell-based; settings: Plasmodium falciparum, synchronized late trophozoite parasites, triplicate, mean ± SD, read-out: IC50 (µM) against PfRKL-9
Method: as §1, §2
SYBR green I based fluorescence assay was performed to measure the growth inhibition effect of the 26 compounds and further dose dependent assay against Pf3D7, and PfRKL-9 (Indian field strain, source- NIMR, New Delhi, India) was carried out at different concentrations. In brief, Pf3D7 and PfRKL-9 parasitized erythrocytes (trophozoite stage with 1% parasitemia) were diluted with noninfected erythrocytes at a constant 2% hematocrit in culture medium. Parasitized erythrocytes were treated with different concentrations of compounds ranging from 1 µM to 10 µM, whereas DMSO worked as a control. Triplicate wells of parasitized erythrocytes treated with compounds were seeded in 96 well microtiter plate following incubation at 37 °C for one cycle of parasite growth. […] Growth inhibition (%) was calculated as follows: % Inhibition = [1 − % Parasitemia (Treatment)/% Parasitemia (Control)] *100. Data were expressed as mean ± SD.

[3] = test system: embryonic kidney cell lines, HEK-293
Method: Cytotoxicity against human embryonic kidney cell line (ATCC) was determined using MTT dye[35]. In order to measuring the cytotoxicity of the compounds we used MTT dye to detect live/dead cells. […] cells were stored at 37 °C, 5% CO2 in […] sterile culture flasks (Corning) in complete Dulbecco's Modified Eagle Medium (DMEM) culture medium (a) supplemented with 5% Fetal Bovine Serum (FBS), gentamicin ([…]), with changing the medium thrice a week. The monolayers were washed, counted, diluted in complete medium, distributed in 96-well microtiter plates (5000 cells/well), followed by incubation for another 24 h at 37 °C. The test compounds and DMSO were added in triplicate. After a 48 h incubation at 37 °C, the supernatant was removed and 100 µL of MTT solution in complete DMEM was added to each well, followed by 2 h incubation at 37 °C. The culture plates were read in a spectrophotometer (Tecan infinite M200, nanoquant, UK) with a 490 nm filter, and the cytotoxic concentrations were determined based on a dose response curve.

human RBCs = experiment: Hemolytic activity on human RBCs; assay type: cell-based; settings: 0.5-20 µM, 10% (v/v) RBC suspension, 1 h, absorbance at 415 nm
Method: Effect of compounds on human RBCs was checked with the help of spectrophotometry by measuring the lysis of human red blood cells (hRBCs). Compounds were tested at 0.5, 1, 5, 10 and 20 μM concentrations with 10% (v/v) RBCs suspension for 1 h and observed the percentage of RBCs lysis by compounds 7, 16, 17, 18 and 1.
Human RBCs were from Rotary Blood Bank, Tughlakabad Institutional Area, New Delhi, India. Effect of compounds on RBCs was checked by hemolytic assay. In brief, RBCs suspension with 10% (v/v) washed with 1 × Phosphate-buffered saline (PBS) (pH 7.4) and again resuspended in 1 × PBS. RBCs suspension was incubated with compounds 7, 16, 17, 18 and 1 at different concentrations (0.5, 1, 5, 10 and 20 μM) for 1 h at 37 °C. Samples were centrifuged and supernatant was taken for absorbance at 415 nm. Triton X-100 with 1% (v/v) was used as a positive control. Experiment was done in triplicate.

[4] = test system: Mitochondrial membrane potential of the malaria parasites; experiment: JC-1 mitochondrial membrane potential assay; assay type: cell-based, Plasmodium falciparum; settings: parasites treated with IC50 concentration for 3 h; untreated control 7.04 ± 1.30
Source text: Mitochondrial membrane potential is a marker of mitochondria’s functional status. Modification in mitochondrial membrane potential leading to mitochondrial dysfunction triggers cell death[25],[26]. Mitochondrial dysfunction was detected by using membrane permeant JC-1 dye. JC-1 is a cationic probe, due to electronegative environment inside the functionally active mitochondria with high Δψm, it aggregates in energised mitochondria and gives red color fluorescence at 590 nm, but in case of low Δψm (depolarized state), JC-1 remain in monomeric form and gives green color fluorescence at […]. Decreased ratio of red/green fluorescence intensity of compound treated sample as compared to untreated control indicates depolarized mitochondrial membrane[27],[28]. The damage to the parasite's mitochondria after treatment with compounds 7, 16, 17, 18 and 1 was measured according to the method reported previously. Because of lipophilic nature of the JC-1, it is cell permeable and emits a green signal (525 nm) in the cytoplasm, but the high transmembrane potential of functional mitochondria causes it to aggregate and emit a red signal (590 nm). […]. Mitochondrial membrane potential of the malaria parasites was determined by using MitoProbe™ JC-1 assay as described previously. In brief, trophozoite stage parasites (10–12% parasitemia) were treated with IC50 concentration of compounds 7, 16, 17, 18 and 1 for 3 h at 37 °C in the CO2 incubator. Samples were washed with 1 × PBS by centrifugation at 500 × g for 2 min at RT. Freshly prepared JC-1 dye was added to each sample with working concentration of 5 µg/mL. Incubation was done for 30 min at 37 °C in a CO2 incubator. Cells were washed twice with 1 × PBS. Spectrofluorometer was used to observe mitochondrial membrane potential by measuring fluoroscence intensities from the parasite lysate at wavelength of excitation (520 nm) and emission (590 nm) respectively. In vivo cell imaging was done with the help of Olympus fluoview 3000 confocal microscopy. Live cell imaging was observed under a 100X objective (oil immersion) and band pass filter at 355–460 nm. Experiments were repeated thrice and only representative figures are shown (Fig. 6).

P. berghei ANKA = experiment: In vivo antiplasmodial activity in P. berghei ANKA infected BALB/c mice; parameters: species or system Plasmodium berghei ANKA
Method: In vivo antiplasmodial efficacy of 7 was assessed in P. berghei ANKA infected BALB/c mice model. Compound dose was given intra-peritoneal injections for seven days in a row. To check the parasitemia, thin blood smears were made from P. berghei ANKA infected mice for up to seven consecutive days. […] Compound 7 was able to effectively reduce the parasite load compared to a control group of untreated mice for seven consecutive days post infection.
To make relevant inferences, statistical analyses were carried out on the in vivo data using Graphpad Prism data sheets.
Antiplasmodial activity of hit compound 7 was investigated in mice model with the help of protocol described previously. Briefly, intra-peritoneal injection of 1 × 10^7 Plasmodium berghei ANKA infected erythrocytes diluted with sterile 1 × PBS was injected into mice. In each group five mice were taken. Thin smears were made from the tail blood of mice to check the infection. Post infection, P. berghei infected mice administered intra-peritoneally with compound 7 with the dose of 50 mg/kg body weight, daily for seven consecutive days post infection. Mice treated with 1xPBS were kept as vehicle control. […] Data were calculated and presented as percentage increase in the parasitemia. All animal experiments were carried out in accordance with the standard approved procedures. […]

[5] = HEK-293 cells, MTT, 48 h incubation

Cc1cn([C@@H]2O[C@H](CN3C[C@@H](COC(c4ccccc4)(c4ccccc4)c4ccccc4)O[C@@H](n4ccc(=O)[nH]c4=O)C3)[C@H]3OC(C)(C)O[C@H]32)c(=O)[nH]c1=O [Compound 1]
IC50 [1]: 1.31 ± 1.1 µM | growth inhibition against Pf3D7 (in words) [1]: significant growth inhibition in a dose dependent manner; also recorded: good/excellent inhibitory effect | IC50 [2]: 1.83 ± 0.7 µM | Cell survival (%) at 500 µM [3, 5]: 45% | lysis of human RBCs (in words) (human RBCs): no significant lysis | JC-1 red/green ratio [4]: 5.69 ± 0.70

CC(=O)OC[C@H]1O[C@@H](SC[C@@H]2O[C@@H](n3cnc4c(NC(c5ccccc5)(c5ccccc5)c5ccccc5)ncnc43)[C@@H]3OC(C)(C)O[C@@H]32)[C@H](OC(C)=O)[C@@H](OC(C)=O)[C@@H]1OC(C)=O [Compound 7, 1-[2’,3’-O-isopropylidene-5’-S-(2,3,4,6-tetra-O-acetyl-β-D-glucopyranosyl)-5’-thio-α-L-lyxofuranosyl]-N-trityl-adenine]
IC50 [1]: 0.92 ± 1.8 µM | growth inhibition against Pf3D7 (in words) [1]: significant growth inhibition in a dose dependent manner | IC50 [2]: 2.1 ± 1.3 µM | Cell survival (%) at 500 µM [3, 5]: 55% | lysis of human RBCs (in words) (human RBCs): no significant lysis | JC-1 red/green ratio [4]: 5.26 ± 1.13 | percentage parasitemia on the seventh day (P. berghei ANKA; 50 mg/kg intra-peritoneal, seven days, control 25%): 10% | Mean survival time (MST) (P. berghei ANKA; 50 mg/kg, observed 21 days post-infection, control MST = 10 days): 14 days

CC(=O)OC[C@H]1O[C@@H](SC[C@@H]2[C@@H](O[Si](C)(C)C(C)(C)C)[C@H](n3ccc(=O)[nH]c3=O)O[C@@H]2CO[Si](C)(C)C(C)(C)C)[C@H](OC(C)=O)[C@@H](OC(C)=O)[C@H]1OC(C)=O [Compound 16, 1-[3’-Deoxy-3’-C-(-2,3,4,6-tetra-O-acetyl-β-D-galactopyranosyl-sulfanylmethyl)-2’,5’-di-O-(tert-butyldimethylsilyl)-β-D-xylofuranosyl]-uracil]
IC50 [1]: 1.78 ± 1.3 µM | growth inhibition against Pf3D7 (in words) [1]: significant growth inhibition in a dose dependent manner | IC50 [2]: 9.55 ± 1.7 µM | Cell survival (%) at 500 µM ([3]; human, 48 h): 52% | lysis of human RBCs (in words) (human RBCs): no significant lysis | JC-1 red/green ratio [4]: 4.98 ± 1.77

CC(=O)O[C@@H]1[C@@H](OC(C)=O)[C@H](SC[C@@H]2[C@@H](O[Si](C)(C)C(C)(C)C)[C@H](n3ccc(=O)[nH]c3=O)O[C@@H]2CO[Si](C)(C)C(C)(C)C)OC[C@H]1OC(C)=O [Compound 17, 1-[3’-Deoxy-3’-C-(-2,3,4-tri-O-acetyl-β-D-xylopyranosyl-sulfanylmethyl)-2’,5’-di-O-(tert-butyldimethylsilyl)-β-D-xylofuranosyl]-uracil]
IC50 [1]: 1.33 ± 1.07 µM | growth inhibition against Pf3D7 (in words) [1]: significant growth inhibition in a dose dependent manner | IC50 [2]: 1.84 ± 1.06 µM | Cell survival (%) at 500 µM ([3]; human, 48 h): 51% | lysis of human RBCs (in words) (human RBCs): no significant lysis | JC-1 red/green ratio [4]: 6.28 ± 1.55

CC(=O)N[C@@H]1[C@@H](OC(C)=O)[C@H](OC(C)=O)[C@@H](COC(C)=O)O[C@H]1SC[C@@H]1[C@@H](O[Si](C)(C)C(C)(C)C)[C@H](n2cc(C)c(=O)[nH]c2=O)O[C@@H]1CO[Si](C)(C)C(C)(C)C [Compound 18, 1-[3’-Deoxy-3’-C-((2-acetamido-3,4,6-tri-O-acetyl-β-D-glucopyranosylthio)methyl)-2’,5’-di-O-(tert-butyldimethylsilyl)-β-D-xylofuranosyl]-5-methyluracil]
IC50 [1]: 1.15 ± 1.5 µM | growth inhibition against Pf3D7 (in words) [1]: significant growth inhibition in a dose dependent manner | IC50 [2]: 2.21 ± 1.3 µM | Cell survival (%) at 500 µM ([3]; human, 48 h): 60% | lysis of human RBCs (in words) (human RBCs): no significant lysis | JC-1 red/green ratio [4]: 5.53 ± 1.40
